{
  "source": "patent US20120064180A1",
  "about": "“USE OF NO AND NO DONORS FOR TERMINATING DORMANCY IN INVERTEBRATES” (UNIVERSITEIT GENT, priority 2009, published 2012)",
  "key": {"[1]": {"system": "Bolshoye Yarovoye Artemia cysts (ARC BY 1706)", "experiment": "Post-diapause development of Bolshoye Yarovoye strain encysted Artemia embryos with NO donors", "assay_type": "in vivo", "protocol": "Encysted embryos (cysts) from a parthenogenetic strain of Artemia obtained in winter 2005-2006 in Bolshoye Yarovoye (Altay Region: 52° 51′64″ N-78° 37′32″ E), Russia (Artemia Reference Center (ARC) code number BY 1706), were stored in the dark at 4° C. in dry sealed bags. For the experiment, the cysts were grown at 26-28° C. with constant illumination in 25 ml of sea water under varying experimental conditions as detailed below.\nTo quantify larval (nauplii) emergence and hatching (FIG. 1) which served as measures of cyst development, 6 samples of 250 μl from each 50 ml tube were mixed individually with 250 μl of sea water and 2 drops of Lugol's solution (Van Stappen, G, 1996) prior to counting nauplii (N) and umbrella (U) with the aid of a dissecting microscope. […] The extent of development was determined as the percent of developed cysts which was calculated as either the number of hatched larvae, or the number of hatched and emerged larvae, obtained from 100 cysts, the latter represented by the sum of hatched nauplii (larvae), emerged larvae and undeveloped cysts containing embryos.\nThe hatching percentage (H %) was calculated according to: […]\nThe hatching percentage plus (H^+%) was calculated according to: […]\nThe percent of developed cysts was calculated as described above."}, "[2]": {"system": "diapaused pupae of Heliothis virescens", "conditions": "30 min dip", "protocol": "The larval stages of the tobacco budworm Heliothis virescens (Lepidoptera: Noctuidae) were reared on an artificial diet at standard conditions of 25° C. and long light conditions with 14 h light (Smagghe G et al., 1994). To produce nondiapause pupae, the larvae were kept at these conditions throughout development, whereas for pupal diapause induction, third instar larvae were transferred to 18° C. and short light conditions of 8 h light. The pupal stemma were examined to check the diapause status as described (Philips J R et al., 1966).\nThe treatment was done in capped plastic Falcon tubes of 10 ml. Controls were dipped in distilled water. After treatment, pupae were put in 9-cm Petri dishes, lined with a filter paper and kept at 25° C. and 14 h light, and development of adults was scored at daily intervals. Per treatment, 20 pupae were tested. Means±SD were compared to controls with a Student's t-test."}, "[3]": {"system": "eggs with diapaused embryos of Bombyx mori", "experiment": "Termination of embryonic diapause in eggs dipped in NO donor or HCl", "assay_type": "in vivo", "conditions": "SpermineNONOate 1 mM 30 min dip; 20% HCl 5 min 48° C.", "protocol": "All experiments were carried out on silkmoth strain Bombyx mori J106 (Lepidoptera: Bombycidae). Larvae were maintained on an artificial diet (Yakuruto Co.) under standard conditions of 25° C., 65% relevant humidity and 16 h light ([…] et al., 2003). Egg batches were collected from a continuous insect colony and used for the experiments. […] The latter treatment is the normally used procedure to break diapause in eggs with diapaused embryos for maintenance of the insect colony of B. mori ([…] et al., 2003). In a water-control, eggs with diapaused embryos were dipped in distilled water only, and in a blank-control, eggs with diapaused were not treated. […] The numbers of eggs with diapaused embryos per treatment (n) are given with the results."}},
  "data": [
    {"substance": "N-[4-[1-(3-aminopropyl)-2-hydroxy-2-nitrosohydrazinobutyl]-1,3-propane diamine [Spermine NONOate]", "values": [
      {"measurement": "hatching after 24 hours", "setting": "[1]; 40 and 60 μM, 24 hours, overcome by 48 hr", "result": "less dramatic, but obvious"},
      {"measurement": "concentration at which NO donor was most effective on cyst development", "setting": "[1]; Bolshoye Yarovoye cysts, FIG. 2A-F", "result": 4.0, "unit": "µM"},
      {"measurement": "time to develop into the adult stage", "setting": "[2]; 1000 μM, control 9.17±0.75 d, p=0.01", "result": "7.60 ± 0.89", "unit": "days"},
      {"measurement": "time to adult stage versus controls", "setting": "[2]; 10 and 100 μM", "result": "similar"},
      {"measurement": "Number of developed neonates at day 6", "setting": "[3]", "result": 28},
      {"measurement": "Number of developed neonates at day 7", "setting": "[3]", "result": 22},
      {"measurement": "Number of developed neonates at day 8", "setting": "[3]", "result": 10},
      {"measurement": "Number of developed neonates at day 14", "setting": "[3]", "result": 0},
      {"measurement": "Number of undeveloped eggs at day 14", "setting": "[3]", "result": 10},
      {"measurement": "eggs developed into neonate larvae at 6-8 days after treatment (total)", "setting": "[3]", "result": 86, "unit": "%"},
      {"measurement": "percentage of developed neonates at day 14", "setting": "[3]", "result": "(0%)"}
    ]}
  ]
}
